Laboratory results published in the supplement of paper PMC10307832.

How the values were obtained:
Test in all cases: relative viability (nuclei count vs DMSO), 5 days (fraction); higher = more cells survive
[1] = compound: OCc1c[nH]c2ccccc12 [Indole-3-carbinol] + CS(=O)(=O)CCNCc1ccc(-c2ccc3ncnc(Nc4ccc(OCc5cccc(F)c5)c(Cl)c4)c3c2)o1 [Lapatinib] (partner 2 µM)
Method in brief: (§1)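 Relative viability was taken as the ratio of nuclei in treated wells to nuclei in vehicle wells. Lung cancer cell lines in 1536-well plates received compounds by pin tool one day after seeding, either one drug alone or a fixed anchor-drug dose plus five library-drug doses (not always all listed) in √10 steps. Nuclei were counted on 4× images after 5 days of treatment, and values are medians of duplicate plates.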

[2] = compound: OCc1c[nH]c2ccccc12 [Indole-3-carbinol] + CS(=O)(=O)N1CCN(Cc2cc3nc(-c4cccc5[nH]ncc45)nc(N4CCOCC4)c3s2)CC1 [Pictilisib] (partner 1 µM)
Method in brief: as §1

[3] = compound: OCc1c[nH]c2ccccc12 [Indole-3-carbinol] + Cc1nc(NC(=O)N2CCC[C@H]2C(N)=O)sc1-c1ccnc(C(C)(C)C(F)(F)F)c1 [Alpelisib] (partner 2 µM)
Method in brief: as §1

[4] = compound: OCc1c[nH]c2ccccc12 [Indole-3-carbinol] + Cc1nc(Nc2ncc(C(=O)Nc3c(C)cccc3Cl)s2)cc(N2CCN(CCO)CC2)n1 [Dasatinib] (partner 0.075 µM)
Method in brief: as §1

[5] = compound: OCc1c[nH]c2ccccc12 [Indole-3-carbinol] + N=C(N)NC(=N)NCCc1ccccc1 [Phenformin] (partner 250 µM)
Method in brief: as §1

Row | Cell Line | relative viability ([1]; first compound 0.253 µM) | relative viability ([1]; first compound 0.8 µM) | relative viability ([1]; first compound 2.53 µM) | relative viability ([1]; first compound 8 µM) | relative viability ([2]; first compound 0.253 µM) | relative viability ([2]; first compound 0.8 µM) | relative viability ([2]; first compound 2.53 µM) | relative viability ([2]; first compound 8 µM) | relative viability ([3]; first compound 0.253 µM) | relative viability ([3]; first compound 0.8 µM) | relative viability ([3]; first compound 2.53 µM) | relative viability ([3]; first compound 8 µM) | relative viability ([4]; first compound 0.253 µM) | relative viability ([4]; first compound 0.8 µM) | relative viability ([4]; first compound 2.53 µM) | relative viability ([4]; first compound 8 µM) | relative viability ([5]; first compound 0.253 µM) | relative viability ([5]; first compound 0.8 µM) | relative viability ([5]; first compound 2.53 µM) | relative viability ([5]; first compound 8 µM)
1 | NCI-H460 | 1.09 | 0.993 | 0.983 | 0.9 | 0.479 | 0.271 | 0.373 | 0.337 | 0.458 | 0.457 | 0.563 | 0.517 | 0.451 | 0.59 | 0.499 | 0.444 | 0.535 | 0.482 | 0.53 | 0.498
2 | NCI-H520 | 0.899 | 0.838 | 0.868 | 0.742 | 0.287 | 0.255 | 0.27 | 0.254 | 0.911 | 1.07 | 1.04 | 0.849 | 0.177 | 0.245 | 0.242 | 0.183 | 0.58 | 0.549 | 0.622 | 0.585
3 | NCI-H596 | 1.05 | 0.779 | 0.936 | 0.985 | 0.368 | 0.416 | 0.364 | 0.411 | 0.387 | 0.48 | 0.417 | 0.47 | 0.649 | 0.665 | 0.659 | 0.595 | 0.633 | 0.735 | 0.77 | 0.723
4 | NCI-H647 | 1.24 | 0.904 | 0.87 | 0.969 | 0.469 | – | 0.489 | 0.437 | 1.22 | 1.15 | 1.24 | 1.09 | 0.18 | – | 0.222 | 0.167 | 0.637 | – | 0.569 | 0.446
5 | NCI-H650 | 0.333 | 0.817 | 0.98 | 0.842 | 0.899 | 0.871 | 0.929 | 0.913 | 1.06 | 1.18 | 1.05 | 0.953 | 0.472 | 0.488 | 0.444 | 0.447 | 0.47 | 0.491 | 0.484 | 0.416
6 | NCI-H661 | 0.541 | 0.44 | 0.533 | 0.478 | 0.389 | 0.325 | 0.448 | 0.384 | 0.793 | 0.502 | 0.74 | 0.594 | 0.961 | 0.827 | 0.819 | 0.917 | 0.281 | 0.253 | 0.272 | 0.266
7 | NCI-H727 | 0.75 | 0.699 | 0.782 | 0.769 | 0.263 | 0.409 | 0.477 | 0.494 | 0.583 | 0.562 | 0.535 | 0.603 | 0.365 | 0.408 | 0.294 | 0.306 | 0.532 | 0.502 | 0.458 | 0.673
8 | NCI-H838 | 1.09 | 0.805 | 0.959 | 0.949 | 0.537 | 0.431 | 0.459 | 0.431 | 1.04 | 1.05 | 1.01 | 0.975 | 0.27 | 0.31 | 0.297 | 0.295 | 0.607 | 0.526 | 0.735 | 0.553
9 | NCI-H1355 | 1.08 | 0.981 | 0.975 | 0.887 | 0.324 | 0.415 | 0.435 | 0.428 | 0.809 | 0.875 | 0.766 | 0.672 | 0.677 | 0.886 | 0.672 | 0.737 | 0.48 | 0.455 | 0.435 | 0.462
10 | NCI-H1395 | 1.04 | 0.873 | 0.931 | 0.829 | 0.616 | 0.67 | 0.639 | 0.662 | 1.31 | 0.984 | 0.983 | 1.02 | 0.386 | 0.392 | 0.458 | 0.413 | 0.434 | 0.405 | 0.432 | 0.457
11 | NCI-H1437 | 0.818 | 0.868 | 0.781 | 0.761 | 0.535 | 0.438 | 0.466 | 0.433 | 0.928 | 1.04 | 0.937 | 0.811 | 0.386 | 0.445 | 0.35 | 0.541 | 0.308 | 0.323 | 0.29 | 0.448
12 | NCI-H1563 | 1.03 | 0.818 | 0.975 | 0.967 | 0.667 | 0.611 | 0.664 | 0.662 | 0.905 | 0.997 | 0.921 | 0.885 | 0.471 | 0.428 | 0.429 | 0.479 | 0.657 | 0.652 | 0.636 | 0.644
13 | NCI-H1651 | 0.619 | 0.69 | 0.921 | 0.704 | 0.613 | 0.486 | 0.499 | 0.554 | 0.744 | 0.97 | 0.954 | 0.895 | 0.412 | 0.387 | 0.443 | 0.368 | 0.287 | 0.349 | 0.315 | 0.424
